The values below come from patent US12622915B2, “Methods of treating PDE IV-mediated diseases or conditions” (Vanda Pharmaceuticals Inc., priority 2020, dated 2026).

Each structure is given as a SMILES string.

The nature of data set [1]: Plasma and ear skin concentration in IMQ model, day 6. Format: in vivo, BALB/c mice. Conditions: day 6, post 2h treatment, topical 0.5%. As for the experimental part: On day 6, blood is collected by retro-orbital bleeding under isoflurane anesthesia prior to euthanasia. Blood is collected in K2-EDTA tubes and plasma is separated and stored at −80° C. for further analysis (for test item concentration).
On day 6, post 2h treatment, plasma and ear skin concentration of animals treated with the compound of Formula (I) are estimated. […] The concentration in the ear skin is close to 976-fold more than the plasma levels.

Data set [2] addresses T1, Phosphodiesterase PDE4A1A (Homo sapiens, UniProt P27815).
T1 construct: host or cells: insect Sf9 cells
Nature of the data set: Phosphodiesterase PDE4A1A enzyme assay. The format is biochemical.
Excerpt: (§1) Reference standards are run as an integral part of each assay to ensure the validity of the results obtained. Reference Compounds: • Phosphodiesterase PDE10A2 Papaverine • Phosphodiesterase PDE11A4 Dipyridamole • Phosphodiesterase PDE1A MMPX • Phosphodiesterase PDE2A EHNA • Phosphodiesterase PDE3A Cilostamide • Phosphodiesterase PDE4A1A Rolipram • Phosphodiesterase PDE4B1 Rolipram • Phosphodiesterase PDE5A Zaprinast • Phosphodiesterase PDE6 Zaprinast • Phosphodiesterase PDE7A IBMX • Phosphodiesterase PDE7B IBMX • Phosphodiesterase PDE8A1 Dipyridamole • Phosphodiesterase PDE9A2 Zaprinast
PDE4 assays are performed using methods adapted from the literature. See Richter W, et al. (2001) Identification of inhibitor binding sites of the cAMP-specific phosphodiesterase 4. Cell Signal. 13(4): 287-297; Wang H, et al. (2005) Multiple elements jointly determine inhibitor selectivity of cyclic nucleotide phosphodiesterases 4 and 7. J Biol Chem. 280(35): 30949-30955.
(§2) Phosphodiesterase PDE4A1A; Phosphodiesterase PDE4B1; Phosphodiesterase PDE10A2; Phosphodiesterase PDE11A4; Phosphodiesterase PDE2A; Phosphodiesterase PDE3A; Phosphodiesterase PDE7A; Phosphodiesterase PDE7B; and Phosphodiesterase PDE8A1: • Source: Human recombinant insect Sf9 cells • Substrate: 0.10 μM FAM-cAMP • Vehicle: 1.00% DMSO • Significance Crit.: ≥50% of max stimulation or inhibition • Incubation Buffer: 10 mM Tris-HCl, pH 7.2, 10 mM MgCl2, 0.05% NaN3, 0.1% phosphate-free BSA • Quantitation Method: Quantitation of Fluorescein-AMP-IMAP • Pre-Incub. Time/Temp: 15 minutes @25° C. • Incubation Time/Temp: 30 minutes @25° C.
(§3) IC50 values are determined by a non-linear, least squares regression analysis using MathIQ™ (ID Business Solutions Ltd., UK). Where inhibition constants (Ki) are presented, the Ki values are calculated using the equation of Cheng and Prusoff (Cheng, Y., Prusoff, W. H., Biochem. Pharmacol. 22:3099-3108, 1973) using the observed IC50 of the tested compound, the concentration of radioligand employed in the assay, and the historical values for the KD of the ligand. Where presented, the Hill coefficient (nH), defining the slope of the competitive binding curve, is calculated using MathIQ™. […] Where IC50, Ki, and/or nH data are presented without Standard Error of the Mean (SEM), data are insufficient to be quantitative, and the values presented (Ki, IC50, nH) are interpreted with caution.
Reference standards are run as an integral part of each assay to ensure the validity of the results obtained. Rolipram is used for the PDE4 assays.
Phosphodiesterase PDE4A1A: • Source: Human recombinant insect Sf9 cells • Substrate: 0.10 μM FAM-cAMP • Vehicle: 1.00% DMSO • Significance Crit.: ≥50% of max stimulation or inhibition • Incubation Buffer: 10 mM Tris-HCl, pH 7.2, 10 mM MgCl2, 0.05% NaN3, 0.1% phosphate-free BSA • Quantitation Method: Quantitation of Fluorescein-AMP-IMAP • Pre-Incub. Time/Temp: 15 minutes @25° C. • Incubation Time/Temp: 30 minutes @25° C.
as §3, with “W.H.,” for “W. H.,”

The next data set has as its target T2, Phosphodiesterase PDE7A (Homo sapiens, UniProt Q13946).
T2 construct: host or cells: insect Sf9 cells
Nature of the data set: Phosphodiesterase PDE7A enzyme assay. The note with it: N=2, Example 3. Format: biochemical.
Excerpt: as §1, §2
(§4) IC50 values are determined by a non-linear, least squares regression analysis using MathIQ™ (ID Business Solutions Ltd., UK). […]

The next data set addresses T3, Phosphodiesterase PDE7B (Homo sapiens, UniProt Q9NP56).
T3 construct: host or cells: insect Sf9 cells
Nature of the data set: Phosphodiesterase PDE7B enzyme assay. The note with it: N=2, Example 3. The format is biochemical.
Excerpt: as §1, §2, §4

The nature of data set [3]: Preclinical genotoxicity studies (mutations, clastogenic effects). The note with it: in vitro or in vivo.
Data set [4] in a line: Ocular instillation studies. The note with it: preclinical ocular instillation studies. Format: in vivo.

T1 sequence (P27815 1-647 isoform P27815-4): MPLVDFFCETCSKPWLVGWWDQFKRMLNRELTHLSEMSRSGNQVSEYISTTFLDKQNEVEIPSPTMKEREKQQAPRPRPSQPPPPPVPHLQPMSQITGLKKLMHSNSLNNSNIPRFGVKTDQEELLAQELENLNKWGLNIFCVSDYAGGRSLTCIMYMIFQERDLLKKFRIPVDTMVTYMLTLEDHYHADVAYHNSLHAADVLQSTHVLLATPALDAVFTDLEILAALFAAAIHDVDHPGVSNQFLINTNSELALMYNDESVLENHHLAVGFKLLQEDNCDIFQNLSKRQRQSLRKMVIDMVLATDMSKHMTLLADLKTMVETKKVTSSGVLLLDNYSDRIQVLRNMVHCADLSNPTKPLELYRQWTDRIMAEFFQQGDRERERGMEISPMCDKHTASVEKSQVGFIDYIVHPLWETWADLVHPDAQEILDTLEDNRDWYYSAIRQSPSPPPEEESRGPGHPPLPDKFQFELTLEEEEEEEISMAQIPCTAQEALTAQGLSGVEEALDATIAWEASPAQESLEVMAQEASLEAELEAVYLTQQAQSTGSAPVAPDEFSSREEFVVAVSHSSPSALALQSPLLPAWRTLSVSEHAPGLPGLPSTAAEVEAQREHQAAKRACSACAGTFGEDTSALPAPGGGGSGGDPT
T2 sequence (Q13946 whole entry): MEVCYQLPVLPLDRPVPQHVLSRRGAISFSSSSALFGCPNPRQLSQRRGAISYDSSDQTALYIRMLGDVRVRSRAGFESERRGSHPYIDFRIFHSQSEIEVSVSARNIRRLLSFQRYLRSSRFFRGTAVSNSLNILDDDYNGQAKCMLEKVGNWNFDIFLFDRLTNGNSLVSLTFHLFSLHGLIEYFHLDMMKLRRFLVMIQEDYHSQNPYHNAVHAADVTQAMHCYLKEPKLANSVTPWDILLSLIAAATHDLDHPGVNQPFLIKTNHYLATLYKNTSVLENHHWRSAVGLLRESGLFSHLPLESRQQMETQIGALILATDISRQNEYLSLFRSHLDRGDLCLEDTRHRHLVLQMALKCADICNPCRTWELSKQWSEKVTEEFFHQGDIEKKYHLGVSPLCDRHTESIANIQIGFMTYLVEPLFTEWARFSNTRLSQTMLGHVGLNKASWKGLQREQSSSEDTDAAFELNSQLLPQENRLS
T3 sequence (Q9NP56 whole entry): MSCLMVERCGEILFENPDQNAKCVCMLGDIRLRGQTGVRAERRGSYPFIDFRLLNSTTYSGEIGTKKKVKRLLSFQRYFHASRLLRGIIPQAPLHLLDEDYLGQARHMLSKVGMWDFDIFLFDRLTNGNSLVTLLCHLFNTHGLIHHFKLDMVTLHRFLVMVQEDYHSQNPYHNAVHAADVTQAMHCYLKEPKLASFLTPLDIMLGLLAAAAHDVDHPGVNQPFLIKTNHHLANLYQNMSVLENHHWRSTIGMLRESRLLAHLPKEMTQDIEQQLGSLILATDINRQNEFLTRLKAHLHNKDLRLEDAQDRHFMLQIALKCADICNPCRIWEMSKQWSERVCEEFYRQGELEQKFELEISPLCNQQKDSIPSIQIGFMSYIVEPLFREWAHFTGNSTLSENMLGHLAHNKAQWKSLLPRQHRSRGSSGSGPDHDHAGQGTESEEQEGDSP

In general, inhibition refers to the relative decrease from the control value, in per cent. One may read the IC50 as the concentration that gives 50% inhibition. Turning to `CNc1nc(Nc2ccccc2)nc(OCC(F)(F)C(F)F)n1` [compound of Formula (I), N^2-methyl-N^4-phenyl-6-(2,2,3,3-tetrafluoropropoxy)-1,3,5-triazine-2,4-diamine], the Kp in data set [1] (BALB/c, mouse, ear skin / plasma, read-out: Concentration in the ear skin relative to plasma levels) is roughly 976. The “Concentrations in plasma and ear skin” value in data set [1] is recorded as “Significant concentrations”. Besides, in data set [2] (10 nM, N=2, Example 4), the inhibition at 0.01 µM came out at 23%. Further, in data set [2] (0.03 μM, N=2, Example 4), the inhibition at 0.03 µM is 37%. For the same molecule, the inhibition at 0.1 µM in data set [2] (0.1 μM, N=2, Example 4) is 58%. Also, the inhibition at 0.3 µM in data set [2] (0.3 μM, N=2, Example 4) amounted to 75%. Further, the inhibition at 1 µM in data set [2] (1 μM, N=2, Example 4) was determined as 87%. The inhibition at 3 µM in data set [2] (3 μM, N=2, Example 4) was 93%. Moreover, the inhibition at 10 µM was 99% in data set [2] (N=2, Example 3); 96% in data set [2] (N=2, Example 4); 7% at Phosphodiesterase PDE7A; -1% against Phosphodiesterase PDE7B. In data set [2] (Example 4), it took 0.063 µM to reach half-maximal inhibition (IC50). The “Mutations or biologically relevant clastogenic effects” value in data set [3] is listed as “does not induce mutations or biologically relevant clastogenic effects”. Further, the “Tolerability on ocular instillation” value in data set [4] was “well tolerated”.
